Test results from patent US20080194695A1, “Pharmaceutical Composition Containing Sibutramine Free Base and Manufacturing Method Thereof” (priority 2005, published 2008).
Where a name gives a salt, the structure may show the parent alone. Read-outs that look alike come from different tables or passages of the source.

Legend:
[1] = Dissolution test, paddle method of the Korean Pharmacopoeia, 50 rpm, capsules with sinker, HPLC; assay type: physicochemical
Method: Dissolution tests were performed with examples 1˜6, comparative examples 1˜2, sibutramine free base itself and Reductil™ (Abbott Korea Limited) containing 10[…] of sibutramine hydrochloride monohydrate. To keep dissolution test condition similar, the contents of sibutramine in examples and comparative examples were evaluated with the below HPLC analysis condition and then the predetermined amount of examples, comparative examples and sibutramine free base itself were filled in one capsule to make capsules having 8.37[…] of sibutramine free base. These capsules were used in dissolution tests.
500[…] of pH 4.5 buffered solution [2.99 g of Sodium acetate trihydrate and 1.66[…] of acetic acid anhydrous were dissolved in 1 L of distilled water and then pH of the solution was adjusted to pH 4.5±0.05] and 500[…] of pH 6.8 buffered solution [118[…] of 0.2 mol/L NaOH solution was added to 250[…] of 0.2 mol/L […], and then distilled water was added to make the solution 1000[…]] were used as dissolution media. Paddle method of dissolution test of the Korean Pharmacopoeia was used and paddle was rotated at 50 rpm. Dissolution test was performed for 45 minutes and sinker was also used.
For HPLC analysis, mixture (350:640:10) of acetonitrile, water and tetrahydrofuran was used as mobile phase and ion pair reagent PIC B5 (Low UV) was added to the mobile phase to adjust retention time of peak, and then pH was adjusted to 3.0 with phosphoric acid. Wavelength for determination was 229[…] and flow rate was 1.5[…]/min and injection volume was 20[…].
Results were shown as percent (%) of sibutramine dissolved into dissolution media from test samples compared to the total amount of sibutramine contained in each sample.

[2] = Solubility and dissolution as stated in the background art; conditions: distilled water and pH 6.8 buffered solution
[3] = Hygroscopicity and storage stability of the drug substance as stated in the background art; conditions: during storage
[4] = background art; cited from earlier work
[5] = as said in U.S. Pat. No. 6,900,245; cited from earlier work

Compound | percent of sibutramine dissolved into dissolution media ([1]; distilled water, 15 min) [%] | percent of sibutramine dissolved into dissolution media ([1]; distilled water, 30 min) [%] | percent of sibutramine dissolved into dissolution media ([1]; distilled water, 45 min) [%] | percent of sibutramine dissolved into dissolution media ([1]; pH 4.5 buffered solution, 15 min) [%] | percent of sibutramine dissolved into dissolution media ([1]; pH 4.5 buffered solution, 30 min) [%] | percent of sibutramine dissolved into dissolution media ([1]; pH 4.5 buffered solution, 45 min) [%] | dissolution in words ([1]; pH 6.8 buffered solution) | percent of sibutramine dissolved into dissolution media ([1]; pH 6.8 buffered solution, 15 min) [%] | percent of sibutramine dissolved into dissolution media ([1]; pH 6.8 buffered solution, 30 min) [%] | percent of sibutramine dissolved into dissolution media ([1]; pH 6.8 buffered solution, 45 min) [%] | solubility in words [2] | storage stability in words [3] | hygroscopicity in words [4] | solubility in words [5]
CC(C)CC(N(C)C)C1(c2ccc(Cl)cc2)CCC1 (stereo not drawn) [Sibutramine free base, N,N-dimethyl-1-[1-(4-chlorophenyl)-cyclobutyl]-3-methylbutylamine] | 0 | 0 | 0 | 62 | 80 | 88 | did not practically dissolve | 0 | 0 | 0 | does not almost dissolve | may become sticky gel phase during storage |  | 
CC(C)CC(N(C)C)C1(c2ccc(Cl)cc2)CCC1 (stereo not drawn) [sibutramine hydrochloride monohydrate] |  |  |  |  |  |  |  |  |  |  |  |  | non-hygroscopic | insufficient
CC(C)CC(N(C)C)C1(c2ccc(Cl)cc2)CCC1.Cl (stereo not drawn) [sibutramine hydrochloride anhydrous] |  |  |  |  |  |  |  |  |  |  |  |  | highly hygroscopic | 
